Data on one compound can be found in PMC5218480 (PLoS ONE, 2017).

Structures are written as SMILES.

The subject of the assay is MV-4-11 cells. Briefly: Gene expression microarray analysis (Affymetrix PrimeView) and GSEA. The arrangement: RFU PODN (11730768_x_at) / Fold change /veh PODN (11730768_x_at) / RFU LINC00158 (11744669_a_at) / Fold change /veh LINC00158 (11744669_a_at) / RFU DUSP10 (11751237_a_at) / Fold change /veh DUSP10 (11751237_a_at) / RFU ID3 (11757404_x_at) / Fold change /veh ID3 (11757404_x_at) / RFU PLEKHG5 (11737974_s_at) / Fold change /veh PLEKHG5 (11737974_s_at) / RFU LRRC4B (11730491_at) / Fold change /veh LRRC4B (11730491_at) / RFU GIMAP4 (11747438_a_at) / Fold change /veh GIMAP4 (11747438_a_at) / RFU KRT8 (11758183_x_at) / Fold change /veh KRT8 (11758183_x_at) / RFU CNN1 (11734310_a_at) / Fold change /veh CNN1 (11734310_a_at) / RFU VPS37D (11726825_at) / Fold change /veh VPS37D (11726825_at) / RFU C10orf10 (11716522_x_at) / Fold change /veh C10orf10 (11716522_x_at) / RFU KIR2DL2 /// KIR2DL4 /// KIR2DL5A /// KIR2DL5B /// KIR2DS1 /// KIR2DS2 /// KIR2DS3 /// KIR2DS4 /// KIR3DL3 /// KIR3DL3 /// KIR3DS1 (11738374_at) / Fold change /veh KIR2DL2 /// KIR2DL4 /// KIR2DL5A /// KIR2DL5B /// KIR2DS1 /// KIR2DS2 /// KIR2DS3 /// KIR2DS4 /// KIR3DL3 /// KIR3DL3 /// KIR3DS1 (11738374_at) / RFU C1QL1 (11718748_at) / Fold change /veh C1QL1 (11718748_at) / RFU TMPRSS4 (11747572_a_at) / Fold change /veh TMPRSS4 (11747572_a_at) / RFU HAMP (11756126_x_at) / Fold change /veh HAMP (11756126_x_at) / RFU RNFT2 (11725882_a_at) / Fold change /veh RNFT2 (11725882_a_at) / RFU NR4A2 (11747474_a_at) / Fold change /veh NR4A2 (11747474_a_at) / RFU ABCC12 (11746883_a_at) / Fold change /veh ABCC12 (11746883_a_at) / RFU TMEM136 (11760407_x_at) / Fold change /veh TMEM136 (11760407_x_at) / RFU CLDN22 /// WWC2 (11732394_at) / Fold change /veh CLDN22 /// WWC2 (11732394_at) / RFU HLA-DPB1 (11760878_x_at) / Fold change /veh HLA-DPB1 (11760878_x_at) / RFU SPINT1 (11716480_a_at) / Fold change /veh SPINT1 (11716480_a_at) / RFU GAP43 (11754022_s_at) / Fold change /veh GAP43 (11754022_s_at) / RFU A4GNT (11735810_at) / Fold change /veh A4GNT (11735810_at) / RFU PRB3 (11715151_x_at) / Fold change /veh PRB3 (11715151_x_at) / RFU TUBB4B (11761932_at) / Fold change /veh TUBB4B (11761932_at) / RFU CAPN14 (11732068_a_at) / Fold change /veh CAPN14 (11732068_a_at) / RFU TMCC2 (11721928_a_at) / Fold change /veh TMCC2 (11721928_a_at) / RFU IRGQ (11745062_a_at) / Fold change /veh IRGQ (11745062_a_at) / RFU FAM174B (11720279_a_at) / Fold change /veh FAM174B (11720279_a_at) / RFU TMPRSS4 (11748680_a_at) / Fold change /veh TMPRSS4 (11748680_a_at) / RFU FAM212B (11763350_a_at) / Fold change /veh FAM212B (11763350_a_at) / RFU PLEKHG5 (11743358_a_at) / Fold change /veh PLEKHG5 (11743358_a_at) / RFU ZSCAN30 (11745921_a_at) / Fold change /veh ZSCAN30 (11745921_a_at) / RFU CMKLR1 (11741424_a_at) / Fold change /veh CMKLR1 (11741424_a_at) / RFU LOC101060620 /// MAPK8IP1 (11723275_at) / Fold change /veh LOC101060620 /// MAPK8IP1 (11723275_at) / RFU SPTSSB (11747773_x_at) / Fold change /veh SPTSSB (11747773_x_at) / RFU PRSS12 (11739890_at) / Fold change /veh PRSS12 (11739890_at) / RFU BIN1 (11741810_x_at) / Fold change /veh BIN1 (11741810_x_at) / RFU WNT11 (11732464_a_at) / Fold change /veh WNT11 (11732464_a_at) / RFU C10orf10 (11716521_a_at) / Fold change /veh C10orf10 (11716521_a_at) / RFU C5orf56 (11738089_at) / Fold change /veh C5orf56 (11738089_at) / RFU CYB561 (11721691_x_at) / Fold change /veh CYB561 (11721691_x_at) / RFU ANKRD19P (11752326_a_at) / Fold change /veh ANKRD19P (11752326_a_at) / RFU OR2T12 /// OR2T33 /// OR2T8 (11738714_s_at) / Fold change /veh OR2T12 /// OR2T33 /// OR2T8 (11738714_s_at) / RFU VCAN (11748164_a_at) / Fold change /veh VCAN (11748164_a_at) / RFU JSRP1 (11732532_at) / Fold change /veh JSRP1 (11732532_at) / RFU KRTAP10-11 (11738290_x_at) / Fold change /veh KRTAP10-11 (11738290_x_at) / RFU MYO3A (11730013_a_at) / Fold change /veh MYO3A (11730013_a_at) / RFU EBF3 (11725865_a_at) / Fold change /veh EBF3 (11725865_a_at) / RFU CAMK2N1 (11719241_x_at) / Fold change /veh CAMK2N1 (11719241_x_at) / RFU C5orf56 (11738088_a_at) / Fold change /veh C5orf56 (11738088_a_at) / RFU OLFML3 (11715873_a_at) / Fold change /veh OLFML3 (11715873_a_at) / RFU LOC100653217 /// NTM (11731650_a_at) / Fold change /veh LOC100653217 /// NTM (11731650_a_at) / RFU MAPK11 (11762145_a_at) / Fold change /veh MAPK11 (11762145_a_at) / RFU FIZ1 (11724087_x_at) / Fold change /veh FIZ1 (11724087_x_at) / RFU OASL (11726364_x_at) / Fold change /veh OASL (11726364_x_at) / RFU SOX15 (11748057_x_at) / Fold change /veh SOX15 (11748057_x_at) / RFU CD79A (11719716_a_at) / Fold change /veh CD79A (11719716_a_at) / RFU HIST1H1D (11736915_at) / Fold change /veh HIST1H1D (11736915_at) / RFU CASKIN2 (11723855_a_at) / Fold change /veh CASKIN2 (11723855_a_at) / RFU LOC730098 (11760151_x_at) / Fold change /veh LOC730098 (11760151_x_at) / RFU OR4N2 (11742367_at) / Fold change /veh OR4N2 (11742367_at) / RFU PRRT2 (11749266_a_at) / Fold change /veh PRRT2 (11749266_a_at) / RFU SNX32 (11753110_a_at) / Fold change /veh SNX32 (11753110_a_at) / RFU CDHR5 (11726645_a_at) / Fold change /veh CDHR5 (11726645_a_at) / RFU RCAN1 (11760418_a_at) / Fold change /veh RCAN1 (11760418_a_at) / RFU FAM167A (11723789_a_at) / Fold change /veh FAM167A (11723789_a_at) / RFU FAM26E (11764081_at) / Fold change /veh FAM26E (11764081_at) / RFU ISYNA1 (11749810_s_at) / Fold change /veh ISYNA1 (11749810_s_at) / RFU ACY1 (11761880_at) / Fold change /veh ACY1 (11761880_at) / RFU 11764098_at / Fold change /veh 11764098_at / RFU SAMD14 (11745864_x_at) / Fold change /veh SAMD14 (11745864_x_at) / RFU NPB (11741838_a_at) / Fold change /veh NPB (11741838_a_at) / RFU TMPRSS6 (11731388_a_at) / Fold change /veh TMPRSS6 (11731388_a_at) / RFU KRTAP10-2 (11738614_at) / Fold change /veh KRTAP10-2 (11738614_at) / RFU ARHGAP8 /// PRR5-ARHGAP8 (11727945_x_at) / Fold change /veh ARHGAP8 /// PRR5-ARHGAP8 (11727945_x_at) / RFU KRTAP5-7 /// NADSYN1 (11734609_at) / Fold change /veh KRTAP5-7 /// NADSYN1 (11734609_at) / RFU RASL12 (11751679_a_at) / Fold change /veh RASL12 (11751679_a_at) / RFU CDKN2B (11736163_a_at) / Fold change /veh CDKN2B (11736163_a_at) / RFU PRF1 (11729649_at) / Fold change /veh PRF1 (11729649_at) / RFU, ZNF638 /// ZNF638-IT1 / Fold change vs veh, ZNF638 /// ZNF638-IT1 / RFU, PANK3 / Fold change vs veh, PANK3 / RFU, SH3YL1 / Fold change vs veh, SH3YL1 / RFU, ZEB2 / Fold change vs veh, ZEB2 / RFU, NRIP1 / Fold change vs veh, NRIP1 / RFU, PTTG1IP / Fold change vs veh, PTTG1IP / RFU, CAPN2 / Fold change vs veh, CAPN2 / RFU, MED14 / Fold change vs veh, MED14 / RFU, SNORA58 / Fold change vs veh, SNORA58 / RFU, C1orf63 / Fold change vs veh, C1orf63 / RFU, LRRFIP1 / Fold change vs veh, LRRFIP1 / RFU, NDUFAF7 / Fold change vs veh, NDUFAF7 / RFU, SLC12A2 / Fold change vs veh, SLC12A2 / RFU, IBTK / Fold change vs veh, IBTK / RFU, ESF1 / Fold change vs veh, ESF1 / Fold change vs veh, TMEM50B / RFU, TAOK1 / Fold change vs veh, TAOK1 / RFU, ACBD3 / Fold change vs veh, ACBD3 / RFU, TMA16 / Fold change vs veh, TMA16 / RFU, RWDD3 / Fold change vs veh, RWDD3 / RFU, BCAT1 / Fold change vs veh, BCAT1 / RFU, EDEM3 / Fold change vs veh, EDEM3 / RFU, TMEM33 / Fold change vs veh, TMEM33 / RFU, WDR75 / Fold change vs veh, WDR75 / RFU, AHCTF1 / Fold change vs veh, AHCTF1 / RFU, TFRC / Fold change vs veh, TFRC / RFU, ZDHHC17 / Fold change vs veh, ZDHHC17 / RFU, NOM1 / Fold change vs veh, NOM1 / RFU, ARL8B / Fold change vs veh, ARL8B / RFU, ZBTB11 / Fold change vs veh, ZBTB11 / RFU, TAMM41 / Fold change vs veh, TAMM41 / RFU, KIAA1704 /// LOC100996395 / Fold change vs veh, KIAA1704 /// LOC100996395 / RFU, ING1 / Fold change vs veh, ING1 / RFU, TRMT61B / Fold change vs veh, TRMT61B / RFU, FUBP3 / Fold change vs veh, FUBP3 / RFU, TP53 / Fold change vs veh, TP53 / RFU, TNKS2 / Fold change vs veh, TNKS2 / RFU, ZFP14 / Fold change vs veh, ZFP14 / RFU, ACTR2 / Fold change vs veh, ACTR2 / RFU, PPP3R1 / Fold change vs veh, PPP3R1 / RFU, PIK3R1 / Fold change vs veh, PIK3R1 / RFU, HNRNPA1 / Fold change vs veh, HNRNPA1 / RFU, RNF170 / Fold change vs veh, RNF170 / RFU, ZNF28 / Fold change vs veh, ZNF28 / RFU, RNGTT / Fold change vs veh, RNGTT / RFU, OGT / Fold change vs veh, OGT / RFU, BRD1 / Fold change vs veh, BRD1 / RFU, MARS / Fold change vs veh, MARS / RFU, ZNF655 / Fold change vs veh, ZNF655 / RFU, FAHD1 / Fold change vs veh, FAHD1 / RFU, BDP1 / Fold change vs veh, BDP1 / RFU, LRRCC1 / Fold change vs veh, LRRCC1 / RFU, ARID1A / Fold change vs veh, ARID1A / RFU, ZNF146 / Fold change vs veh, ZNF146 / RFU, ZNF330 / Fold change vs veh, ZNF330 / RFU, GPN3 / Fold change vs veh, GPN3 / RFU, C9orf123 / Fold change vs veh, C9orf123 / RFU, N4BP2L2 / Fold change vs veh, N4BP2L2 / RFU, ARFIP1 / Fold change vs veh, ARFIP1 / RFU, FAM179B / Fold change vs veh, FAM179B / RFU, BCL10 / Fold change vs veh, BCL10 / RFU, UHRF1BP1L / Fold change vs veh, UHRF1BP1L / RFU, BET1 / Fold change vs veh, BET1 / RFU, CNOT2 / Fold change vs veh, CNOT2 / RFU, ZNF268 / Fold change vs veh, ZNF268 / Fold change vs veh, ZNF507 / RFU, DGCR2 / Fold change vs veh, DGCR2 / RFU, WDSUB1 / Fold change vs veh, WDSUB1 / Fold change vs veh, HSP90B1 /// MIR3652 / RFU, ADSS / Fold change vs veh, ADSS / RFU, GK / Fold change vs veh, GK / RFU, ZNF148 / Fold change vs veh, ZNF148 / RFU, TAF9 / Fold change vs veh, TAF9 / RFU, SLC1A5 / Fold change vs veh, SLC1A5 / RFU, SLMO2 / Fold change vs veh, SLMO2 / RFU, ABCC4 / Fold change vs veh, ABCC4 / RFU, LOC101060439 /// RAP1B / Fold change vs veh, LOC101060439 /// RAP1B / RFU, RFX7 / Fold change vs veh, RFX7 / RFU, GTPBP10 / Fold change vs veh, GTPBP10 / RFU, CNEP1R1 / Fold change vs veh, CNEP1R1 / RFU, BIVM-ERCC5 /// ERCC5 / Fold change vs veh, BIVM-ERCC5 /// ERCC5 / RFU, ILF3 / Fold change vs veh, ILF3 / RFU 11762660_at / Fold change /veh 11762660_at / RFU VCAN (11757783_s_at) / Fold change /veh VCAN (11757783_s_at) / RFU DDX43 (11728927_at) / Fold change /veh DDX43 (11728927_at) / RFU KRT8 (11758188_x_at) / Fold change /veh KRT8 (11758188_x_at) / RFU NKD1 (11759106_at) / Fold change /veh NKD1 (11759106_at) / RFU SRD5A1 (11742802_a_at) / Fold change /veh SRD5A1 (11742802_a_at) / RFU TPSAB1 /// TPSB2 (11721975_s_at) / Fold change /veh TPSAB1 /// TPSB2 (11721975_s_at) / RFU GSTM3 (11746129_a_at) / Fold change /veh GSTM3 (11746129_a_at) / RFU IL23R (11737362_x_at) / Fold change /veh IL23R (11737362_x_at) / RFU TMEM51 (11727254_a_at) / Fold change /veh TMEM51 (11727254_a_at) / RFU PIWIL2 (11732686_x_at) / Fold change /veh PIWIL2 (11732686_x_at) / RFU ORM1 (11744905_x_at) / Fold change /veh ORM1 (11744905_x_at) / RFU CCDC152 (11743942_at) / Fold change /veh CCDC152 (11743942_at) / RFU ECM1 (11717891_a_at) / Fold change /veh ECM1 (11717891_a_at) / RFU IL23R (11748794_a_at) / Fold change /veh IL23R (11748794_a_at) / RFU TNFAIP8L3 (11732012_x_at) / Fold change /veh TNFAIP8L3 (11732012_x_at) / RFU MBOAT4 (11741988_at) / Fold change /veh MBOAT4 (11741988_at) / RFU 11764193_at / Fold change /veh 11764193_at / RFU TMEM53 (11763286_at) / Fold change /veh TMEM53 (11763286_at) / RFU MAGEB2 (11727129_at) / Fold change /veh MAGEB2 (11727129_at) / RFU TMEM200A (11744735_a_at) / Fold change /veh TMEM200A (11744735_a_at) / RFU CCDC152 (11751479_a_at) / Fold change /veh CCDC152 (11751479_a_at) / RFU FAM211A (11726209_a_at) / Fold change /veh FAM211A (11726209_a_at) / RFU RGS16 (11746705_a_at) / Fold change /veh RGS16 (11746705_a_at) / RFU VCAN (11755009_s_at) / Fold change /veh VCAN (11755009_s_at) / RFU RHOB (11743442_s_at) / Fold change /veh RHOB (11743442_s_at) / RFU RGS16 (11720943_a_at) / Fold change /veh RGS16 (11720943_a_at) / RFU RGS16 (11720944_at) / Fold change /veh RGS16 (11720944_at) / RFU, VPS4B / Fold change vs veh, VPS4B / RFU, CREB1 / Fold change vs veh, CREB1 / RFU, DNAJC13 / Fold change vs veh, DNAJC13 / RFU, GNAQ / Fold change vs veh, GNAQ / RFU, CDK5R1 / Fold change vs veh, CDK5R1 / RFU, ZRANB3 / Fold change vs veh, ZRANB3 / RFU, CUL4A / Fold change vs veh, CUL4A / RFU, CCNY / Fold change vs veh, CCNY / RFU, UFL1 / Fold change vs veh, UFL1 / RFU, COG3 / Fold change vs veh, COG3 / RFU, DIAPH2 / Fold change vs veh, DIAPH2 / RFU, SKA2 / Fold change vs veh, SKA2 / RFU, AFF3 / Fold change vs veh, AFF3 / RFU, LMF1 / Fold change vs veh, LMF1 / RFU, IPO11 / Fold change vs veh, IPO11 / RFU, DFFB / Fold change vs veh, DFFB / RFU, FOXP1 / Fold change vs veh, FOXP1 / RFU, CARD8 / Fold change vs veh, CARD8 / RFU, STRN3 / Fold change vs veh, STRN3 / RFU, ADK / Fold change vs veh, ADK / RFU, RASSF2 / Fold change vs veh, RASSF2 / RFU, WIPF1 / Fold change vs veh, WIPF1 / RFU, LARP1B / Fold change vs veh, LARP1B / RFU, RASA1 / Fold change vs veh, RASA1 / RFU, RB1 / Fold change vs veh, RB1 / RFU, PPFIA1 / Fold change vs veh, PPFIA1 / RFU, MAT2A / Fold change vs veh, MAT2A / RFU, CCT5 / Fold change vs veh, CCT5 / RFU, WDR92 / Fold change vs veh, WDR92 / RFU, CUX1 / Fold change vs veh, CUX1 / RFU, TTC7A / Fold change vs veh, TTC7A / RFU, TMEM135 / Fold change vs veh, TMEM135 / RFU, DEPTOR / Fold change vs veh, DEPTOR / RFU, CPM / Fold change vs veh, CPM / RFU, DNAJB6 / Fold change vs veh, DNAJB6 / RFU, CACNA2D3 / Fold change vs veh, CACNA2D3 / RFU, DTX4 / Fold change vs veh, DTX4 / RFU, TFCP2 / Fold change vs veh, TFCP2 / RFU, GMCL1 /// GMCL1P1 / Fold change vs veh, GMCL1 /// GMCL1P1 / RFU, AEBP2 / Fold change vs veh, AEBP2 / RFU, SNHG1 /// SNORD22 /// SNORD25 /// SNORD26 /// SNORD27 /// SNORD28 /// SNORD29 /// SNORD31 / Fold change vs veh, SNHG1 /// SNORD22 /// SNORD25 /// SNORD26 /// SNORD27 /// SNORD28 /// SNORD29 /// SNORD31 / Fold change (Aza/veh), C12orf56 (ProbeSet 11735607_a_at) / Fold change (ACY-1035/veh), C12orf56 (ProbeSet 11735607_a_at) / Fold change (Aza/veh), FGFR1OP (ProbeSet 11751329_s_at) / Fold change (ACY-1035/veh), FGFR1OP (ProbeSet 11751329_s_at) / Fold change (Aza/veh), VPS36 (ProbeSet 11739960_a_at) / Fold change (ACY-1035/veh), VPS36 (ProbeSet 11739960_a_at) / RFU SYPL1 (11715823_x_at) / Fold change /veh SYPL1 (11715823_x_at) / RFU IGFBP7 (11715501_s_at) / Fold change /veh IGFBP7 (11715501_s_at) / RFU REEP3 (11722064_at) / Fold change /veh REEP3 (11722064_at) / RFU IGLL1 (11728026_x_at) / Fold change /veh IGLL1 (11728026_x_at): dose or concentration left out as unconfirmed. Conditions: MV-4-11 cells, 48 hours. Type of assay: cell-based, human.

`Nc1ncn([C@@H]2O[C@H](CO)[C@@H](O)[C@H]2O)c(=O)n1` [azacitidine]: the “RFU CMKLR1 (11741424_a_at)” value is listed as 16.54 RFU.
